Results reported in ChEMBL document CHEMBL3580531, “Biotransformation of Curcumenol by Mucor polymorphosporus” (J Nat Prod, 2015).

Tested on: RAW264.7
Assay: Antiinflammatory activity in mouse RAW264.7 cells assessed as inhibition of LPS-induced nitric oxide production after 1 day by Griess assay
Assay type: functional, cell-based
Conditions: RAW264.7, 24 h

Row | IC50 | SMILES
1 | 9.6 µM | CC1=C[C@@]2(O)O[C@@]3(C/C2=C(/C)CO)[C@@H](C)CC[C@@H]13
2 | > 50 µM | CC(C)=C1C[C@@]23O[C@]1(O)C[C@](C)(O)[C@@H]2CC[C@@H]3C
3 | 6.4 µM | CC(C)=C1C[C@@]23O[C@]1(O)C=C(CO)[C@@H]2CC[C@@H]3C
4 | 5.4 µM | CC1=C[C@]2(O)O[C@@]3(CC2=C(C)C)[C@@H](C)CC[C@@H]13 [CURCUMENOL]

Second part, the compound before the results:

Row | SMILES | IC50
5 | CC1=C[C@@]2(O)O[C@]3(CC2=C(C)C)[C@H]1[C@H](O)C[C@@H]3C | 18.5 µM
6 | Cc1cc(=O)c(C(C)(C)O)cc2c1C(=O)C[C@@H]2C | 6.4 µM
7 | Cc1cc(C(=O)O)cc2c1C(=O)C[C@@H]2C | 2.8 µM
8 | COc1ccc2c(c1)c(CC(=O)O)c(C)n2C(=O)c1ccc(Cl)cc1 [INDOMETHACIN] | 14.1 µM
